Results reported in a melting point compilation (Tetko et al.; mined from patent text by program, amines drawn as free bases though some values may be those of a salt).

Compound	melting point
CC(C)Oc1n[nH]c(=O)n1C	142 °C
O=C1NC(=O)c2c1c(-c1ccccc1Cl)cc1c2c2cc(O)ccc2n1CCSc1ccccc1	262 to 264 °C
O=c1[nH]c2ccc(I)cc2c(=O)n1-c1ccc(Cl)cc1	324 to 326 °C
O=C1CC2(CCCCC2)CN1O	110 °C
C#CCN1C=CC(c2c(O)cc(C(C)C(C)CCCCC)cc2OC)CC1 (configuration not stated)	113 to 115 °C
CCCCc1nc(=O)c2cc(C#C[Si](C)(C)C)c(F)cc2[nH]1	192 °C
COC(=O)c1cc(OP(=O)(OC)OC)c(C(=O)OC)s1	60 °C
CCOC(=O)C(N)C=C(CCCCCCN)CP(=O)(O)O (configuration not stated)	194 °C
CCCCCCCCCCCCC(C(=O)O)S(=O)(=O)c1ccc(OC)cc1 (configuration not stated)	82 °C
COc1cc(C=CC(CSc2ccccc2)=NO)ccc1O	90 to 100 °C
CC(Oc1ccc(Oc2ccc(F)cc2)cc1)(C(=O)O)c1ccccc1 (configuration not stated)	113 to 115 °C
COC(=O)C(Oc1ccc(OCc2ccccc2)cc1)c1ccc(Oc2ccc(Cl)cc2)cc1 (configuration not stated)	88 to 90 °C
Cc1ccc(S(=O)(=O)OCC(=O)C(=NO)C(=O)OC(C)(C)C)cc1	106 to 108 °C
COc1cc(OC)c([C@@H]2CCN(C)C[C@H]2O)c(OC)c1 (relative stereo)	96 to 97 °C
CCOC(=O)c1csc2cc(OC)ccc12	68 to 69 °C
O=[N+]([O-])c1cccc(O)c1Cl	130 °C
CC1(C)Oc2ccc(Cl)cc2C12NC(=O)NC2=O (configuration not stated)	228 to 229 °C
COc1cc([N+](=O)[O-])c(CCC(=O)O)c([N+](=O)[O-])c1O	195 °C
Cc1cc(C#N)cnc1Oc1c(Cl)cc(N)cc1Cl	212 °C
Cn1c(C(F)(F)F)cc(=O)n(-c2ncc(Cl)cc2F)c1=O	133 to 134 °C
CCCCOC(=N)c1sc2ccccc2c1O	185 °C
O=C(O)C1Cc2cc(O)c(O)cc2CN1 (configuration not stated)	288 °C
CC(C)NCC(O)c1cc(Cl)c(N)c(C(F)(F)F)c1 (configuration not stated)	104 to 106 °C
COC(=O)c1cc(C)c(C(=O)OC)c(OC)c1	98 to 99 °C
COC1(C=Cc2ccc(C=O)cc2)OOCCOO1	95 to 97 °C
N#Cc1nn(-c2c(Cl)cc(C(F)(F)F)cc2Cl)c(N)c1S(=O)(=O)CC(F)(F)F	157 °C

Compound	melting point
CCCCCCCCCCCCCS(=O)c1nc(NC(=O)Nc2c(C(C)C)cccc2C(C)C)n[nH]1 (configuration not stated)	178 to 181 °C
O=S(=O)(CCO)c1ccccc1	87 to 89 °C
CCCCCCCCOC(=O)NCCC(=O)O	70 to 72 °C
OC(c1ccc2c(c1)CCN2)(C(F)(F)F)C(F)(F)F	161 to 162 °C
CC1CCc2ccc(O)cc2O1 (configuration not stated)	94 to 95 °C
Nc1ccccc1C(=O)OCCN1CCN(c2cccc(Cl)c2)CC1	76 °C
N#CC=Cc1ccc(Cl)cc1C(=O)c1ccccc1F	130 to 133 °C
CC(=O)CC(=O)Nc1cccc(C(F)(F)F)c1	109 to 110 °C
NC1CC(=O)N(Cc2ccccc2)C1=O (configuration not stated)	74 to 77 °C
COc1cccc(C=Cc2ccccc2)c1O	85 to 87 °C
CNC(=S)NCCCSc1ncc[nH]1	139 to 141 °C
CC#CCOc1ccc(S(=O)C(C(=O)NO)c2ccccc2)cc1 (configuration not stated)	55 °C
CC(=O)C(=Cc1cccc([N+](=O)[O-])c1)C(=O)OC(C)(C)CN(C)CCC(c1ccccc1)c1ccccc1	65 to 80 °C
CCC1=C(C#N)C(c2cccc(C#N)c2Cl)c2c[nH]nc2N1 (configuration not stated)	> 300 °C
CNC(=O)NC1CCCc2sccc21 (configuration not stated)	183 to 186 °C
Nc1nc2c(ncn2OC(CO)COCP(=O)(O)O)c(=O)[nH]1 (configuration not stated)	> 300 °C
O=C(O)c1ccccc1CF	178 to 181 °C
Cc1cc(S)n2nc(CN=[N+]=[N-])nc2n1	214 to 215 °C
O=C(O)CCc1c([N+](=O)[O-])cc(O)c(O)c1[N+](=O)[O-]	162 to 165 °C
CSc1c(Cl)c(-c2cc(SC(C)C(=O)O)c(Cl)cc2Cl)nn1C (configuration not stated)	180 °C
CCOC(=O)c1cn2c(n1)CN(C(C)=O)CC2	97 °C
CCCCCCCCCCCCCCC(=O)C(=O)NC(C=CC(=O)O)CCCC (configuration not stated)	65 to 67 °C
C#CC1(O)C(CO)OC(n2ccc(N)nc2=O)C1O (configuration not stated)	233 to 235 °C
CC(C)N1C(=O)c2cccc3c(S(C)(=O)=O)ccc1c23	164 to 165 °C
CS(=O)(=O)Nc1ccc(OCCCN2CCC(OC(c3ccccc3)c3ccccc3)CC2)cc1	41 to 43 °C

Other lines, results leading:

melting point	Compound
237 to 238 °C	O=C(c1ccn2c1CSC2c1cccnc1)c1c[nH]c2ccccc12 (configuration not stated)
202 to 204 °C	CCOCc1nc2c(N)nc3cc(-c4cccnc4)ccc3c2n1CC(O)CO (configuration not stated)
113 °C	COc1ccc(CNc2ccc(C#N)cc2F)cc1
161 °C	OC(C(=Cn1cncn1)c1ccc(Cl)cc1)c1ccccc1C(F)(F)F (configuration not stated)
69 °C	O=C1c2ccccc2CCC1c1ccccc1 (configuration not stated)
329 to 331 °C	Cc1ccc(C=C2CCc3c2oc2ccc(C(=O)O)cc2c3=O)c(C)c1
94 to 95 °C	CCOC(=O)c1cn(-c2cccnc2)nc1Br
189 °C	COC(=O)c1ncc(C(=O)O)c2ccccc12
277 to 279 °C	CN1CCN(c2cc(C(=O)Nc3ccc4c(c3)-c3c(c(C(N)=O)nn3-c3ccc(F)cc3)CC4)ccn2)CC1
> 300 °C	O=c1nc(-c2ccc3c(c2)OCCO3)c2cc3c(cc2[nH]1)OCO3
113 to 115 °C	CCCCN1CC(C(=O)OC)N(S(=O)(=O)c2ccc(-c3ccc(Br)cc3)cc2)CC1=O (configuration not stated)
105 to 106 °C	CCOC(=O)c1ccccc1Nc1ccccc1O
97 to 99 °C	COc1ccc(N)c(-c2cc3ccccc3[nH]2)c1
170 to 172 °C	N#Cc1c2c(c3c(c1N1CCCCC1)CCc1ccccc1-3)-c1ccccc1C2
199 °C	CC1(C)CCOc2ccc(C(=O)c3ccc(C(=O)O)cc3)cc21
164 to 165 °C	Nc1ccc(-c2nnn(-c3ccc(C(F)(F)F)cc3F)c2N)cc1
94 to 96 °C	CCCOC(C(Cc1ccc(Cl)cc1)n1cncn1)C1(C)COCOC1 (configuration not stated)
137 to 138 °C	Nc1ccc(C(=O)c2ccccn2)cc1N
246 to 248 °C	Oc1ccc2c(ccn2-c2ccnc(N[C@H]3CC[C@H](O)CC3)n2)c1
214 to 215 °C	NCc1ccc(-c2nc(-c3ccccc3)c(-c3ccncc3)[nH]2)cc1
122 to 125 °C	CCCc1nc2c(N)nc3cc(OCCN4CCOCC4)ccc3c2s1
45 to 48 °C	CN1C(=O)CC[C@]2(C)c3ccc(-c4ccc(Cl)cc4Cl)cc3CC[C@@H]12
236 to 239 °C	CCCc1nc2c(N)nc3cc(O)ccc3c2s1
207 to 209 °C	O=C(Nc1ccccc1)N1CCC(CN2CCc3c([nH]c4ccccc34)C2)CC1
128 to 130 °C	COc1cc(COc2cc(N)c(Cl)cc2C(=O)CCCCN2CCCCC2)cc(OC)c1
> 250 °C	COc1cc(-c2nc(N3CCOCC3)c3c(C)c(C#N)sc3n2)cc(OC)c1OC

melting point	Compound
201 to 202 °C	CC1(C)CCc2c(N3CCCC3)nc3sc4c(NCc5ccco5)ncnc4c3c2C1
185 to 187 °C	COc1ccnc(CSc2nc3cc4c(cc3[nH]2)OC(F)(F)O4)c1OC
211 to 216 °C	CCOC(=O)c1cn(-c2nonc2C)c2nc(Cl)c(F)cc2c1=O
202 to 204 °C	CC1(C)c2ccc([N+](=O)[O-])cc2[C@@H](NC(=O)NCc2ccccc2)[C@@H]1O (relative stereo)
261 to 263 °C	CN(C)S(=O)(=O)c1ccc(COc2cccc3c2CN(C2CCC(=O)NC2=O)C3=O)cc1 (configuration not stated)
200 to 202 °C	Cc1c(F)cccc1C(=O)Nc1ccc(C(=O)N2CCCC(=O)c3sccc32)cc1
101 to 102 °C	COc1ccc(CC(=O)c2ccc(OC)nc2)cc1
153 °C	CCOC(=O)c1ccc(-c2cnc3c(c2)N(Cc2ccccc2OC(F)(F)F)CCN3)cc1
230 to 232 °C	CC(C)(C)C(NC(=O)c1ccc(-c2ccco2)cc1)Nc1c(Nc2cccnc2)c(=O)c1=O (configuration not stated)
118 to 120 °C	CC12CCC(=O)C=C1CCC1C2CCC2(C)C(n3ccnn3)=CCC12 (configuration not stated)
265 to 266 °C	CC1(C)CCc2c(-c3ccoc3)nc3sc4c(NCc5ccncc5)ncnc4c3c2C1
223 to 228 °C	CN(C)c1cccc(-c2cnc3[nH]cc(C(=O)C(C)(C)C)c3n2)c1
195 to 197 °C	CCOC(=O)COc1ccc(C(=O)Nc2cc(OC)ccc2Sc2ccccc2-c2nnn[nH]2)cc1
176 to 178 °C	CC1(C)Oc2c(c(=O)n(Cc3ccccc3)c3ccccc23)[C@@H](NC(=O)CCCCl)[C@@H]1O (relative stereo)
191 to 194 °C	CCc1nc2c(C)cc(C)nc2n1Cc1ccc2oc(-c3cccc(F)c3C(=O)O)c(Br)c2c1
119 to 121 °C	CCc1nc2c(cnn2CC)c(NC2CCOCC2)c1CNC(=O)c1cc(C)cc(C(=O)NCc2cccc(-c3cccc(CC4CCN(C)CC4)c3)c2)c1
162 to 175 °C	Cc1cccnc1-c1cncc(OC2SCC(O)C(O)C2O)c1 (configuration not stated)
167 to 168 °C	COc1ccc(C2Sc3cc(Oc4ccccc4)ccc3N(CCN(C)C)C(=O)C2OC(C)=O)cc1F (configuration not stated)
234 to 235 °C	CCNC(=O)N1CCc2cc(S(=O)(=O)n3cc(-c4ccccc4)[nH]c3=O)ccc21
212 °C	Cc1cc(C)c2nc(NC3CCN(CCC(N)=O)CC3)n(Cc3nc(C)ccc3O)c2c1
102 °C	Nc1ccccc1C(=O)N1CCCc2ccccc21
149 to 151 °C	CC(C)(C)OC(=O)Nc1ccc(OC2CN(CC(c3ccccc3)c3ccccc3)C2)cc1
211 to 213 °C	Cc1ccc2cccc(OCc3c(Cl)ccc(N4CC(=O)NCC4=O)c3Cl)c2n1
124 to 126 °C	COc1ccc(-n2cccc2-c2ccc(S(C)(=O)=O)cc2)cc1OC
168 to 170 °C	CCN1CCN(C(C(=O)O)c2ccc(Nc3nc(-c4cccc(NC(=O)c5cc6c(s5)CCCCC6)c4C)cn(C)c3=O)cc2)CC1 (configuration not stated)
